Test results as given in patent US7300784B2 (priority 2001, dated 2007).
Values joined by “and” are separate entries in the source; they are usually repeats but may differ in a detail not shown here. Equal entries are not always repeated. Where two headings read alike, the source gives them in different places.

Legend:
Rhodococcus sp. Cr4 = type: cell-based
[1] = test system: nitrile hydratase of Rhodococcus sp. Cr4; type: biochemical
[2] = test system: Rhodococcus rhodochrous ATCC 332878; type: cell-based

Chain of nitrile hydratase of Rhodococcus sp. Cr4 (as listed by the source): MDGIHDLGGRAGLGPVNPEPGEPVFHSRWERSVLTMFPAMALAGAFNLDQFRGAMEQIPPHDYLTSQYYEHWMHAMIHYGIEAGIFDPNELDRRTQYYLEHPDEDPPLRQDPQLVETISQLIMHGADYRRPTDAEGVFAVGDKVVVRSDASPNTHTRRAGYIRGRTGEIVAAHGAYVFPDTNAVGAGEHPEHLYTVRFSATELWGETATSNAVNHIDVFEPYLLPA
Chain of nitrile hydratase of Rhodococcus sp. Cr4 (as listed by the source): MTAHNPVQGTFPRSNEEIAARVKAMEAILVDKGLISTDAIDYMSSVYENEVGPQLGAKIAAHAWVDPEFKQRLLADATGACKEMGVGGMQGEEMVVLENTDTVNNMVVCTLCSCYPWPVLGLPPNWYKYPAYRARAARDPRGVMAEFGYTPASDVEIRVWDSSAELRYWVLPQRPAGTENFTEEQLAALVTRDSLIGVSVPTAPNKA

## CoCl2
Rhodococcus sp. Cr4
  Relative activity (%): 137%
  effect on nitrile hydratase activity in resting cell reaction: enhanced
[1]
  Relative activity (%): 154%
  effect on enzyme activity (words): enhanced
  enhancement of the enzymatic activity: 1.5 times
[1]; 0 mM = 100
  Relative activity (%): 136% and 127% and 129% and 150% and 153% and 143%
[2]
  Relative activity (%): 123%
